According to the supplement of paper PMC10307832:

Key:
Experiment in all cases: relative viability (nuclei count vs DMSO), 5 days (fraction); higher = more cells survive
[1] = compound: CC[C@H](C)N1C=C(C2=C(C=C(C=C21)C3=CN=C(C=C3)N4CCNCC4)C(=O)NCC5=C(C=C(NC5=O)C)C)C [GSK126] + CC1(C)CCC(c2ccc(Cl)cc2)=C(CN2CCN(c3ccc(C(=O)NS(=O)(=O)c4ccc(N[C@H](CCN5CCOCC5)CSc5ccccc5)c(S(=O)(=O)C(F)(F)F)c4)cc3)CC2)C1 [Navitoclax] (partner 0.5 µM)
Summary of the method: (§1)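 The day after seeding in 1536-well plates, lung cancer cell lines were treated by pin tool with a single drug, or with a fixed anchor-drug dose together with five library-drug doses (not always all listed) in √10 steps. After 5 days, a combined fix-and-stain solution (final 0.05% Triton X-100, 1% formaldehyde, 1 ug/ml Hoechst) was added. Nuclei counted on 4× images gave relative viability as treated counts over vehicle counts, reported as the median of duplicate plates.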

[2] = compound: NS(=O)(=O)OC[C@@H]1C[C@@H](n2ccc3c(N[C@H]4CCc5ccccc54)ncnc32)C[C@@H]1O [MLN4924] + CS(=O)(=O)CCNCc1ccc(-c2ccc3ncnc(Nc4ccc(OCc5cccc(F)c5)c(Cl)c4)c3c2)o1 [Lapatinib] (partner 2 µM)
Summary of the method: as §1

[3] = compound: NS(=O)(=O)OC[C@@H]1C[C@@H](n2ccc3c(N[C@H]4CCc5ccccc54)ncnc32)C[C@@H]1O [MLN4924] + CC(=O)c1c(C)c2cnc(Nc3ccc(N4CCNCC4)cn3)nc2n(C2CCCC2)c1=O [Palbociclib] (partner 0.5 µM)
Summary of the method: as §1

[4] = compound: NS(=O)(=O)OC[C@@H]1C[C@@H](n2ccc3c(N[C@H]4CCc5ccccc54)ncnc32)C[C@@H]1O [MLN4924] + CCNC(=O)c1noc(-c2cc(C(C)C)c(O)cc2O)c1-c1ccc(CN2CCOCC2)cc1 [Luminespib] (partner 0.01 µM)
Summary of the method: as §1

Row | Cell Line | relative viability ([1]; first compound 0.08 µM) | relative viability ([1]; first compound 0.253 µM) | relative viability ([1]; first compound 0.8 µM) | relative viability ([1]; first compound 2.53 µM) | relative viability ([1]; first compound 8 µM) | relative viability ([2]; first compound 0.04 µM) | relative viability ([2]; first compound 0.1265 µM) | relative viability ([2]; first compound 0.4 µM) | relative viability ([2]; first compound 1.265 µM) | relative viability ([2]; first compound 4 µM) | relative viability ([3]; first compound 0.04 µM) | relative viability ([3]; first compound 0.1265 µM) | relative viability ([3]; first compound 0.4 µM) | relative viability ([3]; first compound 1.265 µM) | relative viability ([3]; first compound 4 µM) | relative viability ([4]; first compound 0.04 µM) | relative viability ([4]; first compound 0.1265 µM) | relative viability ([4]; first compound 0.4 µM) | relative viability ([4]; first compound 1.265 µM) | relative viability ([4]; first compound 4 µM)
1 | HCC-44 | 0.963 | 0.981 | 0.853 | 0.906 | 1.01 | 0.657 | 0.249 | 0.159 | 0.142 | 0.145 | 1 | 0.756 | 0.793 | 0.636 | 0.45 | 0.964 | 0.564 | 0.441 | 0.227 | 0.294
2 | HCC-78 | 1.01 | 0.711 | 0.832 | 0.741 | 0.804 | 0.871 | 0.515 | 0.683 | 0.142 | 0.215 | 0.52 | 0.462 | 0.472 | 0.422 | 0.418 |  |  |  |  | 
3 | HCC-366 | 1.17 | 1.02 | 1.09 | 1.12 | 1.05 | 0.788 | 0.479 | 0.037 | 0.0233 | 0.0288 | 0.389 | 0.374 | 0.336 | 0.167 | 0.0328 |  |  |  |  | 
4 | HCC-827 | 1.07 | 1.03 | 0.987 | 0.967 | 0.95 | 0.242 | 0.283 | 0.398 | 0.182 | 0.166 | 0.35 | 0.325 | 0.317 | 0.173 | 0.148 | 0.68 | 0.588 | 0.548 | 0.159 | 0.163
5 | HOP-62 | 1.01 | 1.06 | 1.06 | 0.916 | 0.979 | 0.843 | 0.798 | 0.205 | 0.114 | 0.0815 | 0.367 | 0.185 | 0.0998 | 0.0286 | 0.0302 | 0.811 | 0.579 | 0.264 | 0.126 | 0.12
6 | IA-LM | 0.702 | 0.691 | 0.758 | 0.761 | 0.947 | 0.256 | 0.239 | 0.103 | 0.0582 | 0.0755 |  |  |  |  |  |  |  |  |  | 
7 | LC-2-ad | 0.468 | 0.383 | 0.506 | 0.477 | 0.484 | 0.561 | 0.505 | 0.143 | 0.104 | 0.107 | 0.443 | 0.427 | 0.432 | 0.233 | 0.196 | 0.959 | 0.764 | 0.507 | 0.282 | 0.274
8 | LCLC-97TM1 | 0.587 |  | 0.379 | 0.525 | 0.798 | 0.853 | 0.798 | 0.189 | 0.11 | 0.137 | 0.185 | 0.114 | 0.0981 | 0.0625 | 0.0723 | 0.586 | 0.343 | 0.439 | 0.128 | 0.109
9 | LCLC-103H |  |  |  |  |  |  |  |  |  |  | 0.47 | 0.421 | 0.352 | 0.265 | 0.32 | 0.947 | 0.92 | 0.724 | 0.217 | 0.166
10 | LK-2 | 0.957 | 0.772 | 0.819 | 0.789 | 0.756 | 0.521 | 0.656 | 0.638 | 0.272 | 0.257 | 0.508 | 0.342 | 0.284 | 0.138 | 0.161 | 0.234 | 0.173 | 0.192 | 0.212 | 0.182
11 | NCI-H358 |  |  |  |  |  | 0.585 | 0.654 | 0.345 | 0.25 | 0.236 | 0.127 | 0.16 | 0.115 | 0.0864 | 0.0788 | 0.338 | 0.422 | 0.214 | 0.105 | 0.111
12 | NCI-H441 | 0.948 | 0.429 | 0.578 | 0.878 | 0.678 |  |  |  |  |  | 0.236 | 0.224 | 0.165 | 0.104 | 0.101 | 0.36 | 0.387 | 0.276 | 0.208 | 0.245
13 | NCI-H522 |  |  |  |  |  |  |  |  |  |  | 0.835 | 0.693 | 0.741 | 0.348 | 0.37 | 1.08 | 0.709 | 0.851 | 0.433 | 0.467
14 | NCI-H596 | 0.92 | 0.85 | 0.988 | 1.1 | 0.961 | 1.1 | 1.05 | 0.438 | 0.397 | 0.38 |  |  |  |  |  | 0.942 | 0.933 |  | 0.768 | 0.767
15 | NCI-H650 |  |  |  |  |  | 0.492 | 0.543 | 0.26 | 0.166 | 0.169 | 0.307 | 0.182 | 0.159 | 0.136 | 0.166 | 0.86 | 0.543 | 0.367 | 0.17 | 0.162
16 | NCI-H661 |  |  |  |  |  | 0.538 | 0.632 | 0.499 | 0.228 | 0.28 | 0.421 | 0.427 | 0.34 | 0.292 | 0.366 | 0.744 | 0.691 | 0.484 | 0.385 | 0.351
17 | NCI-H1299 | 1.05 | 1.07 | 1.01 | 1.03 | 1.02 | 0.954 | 0.838 | 0.329 | 0.282 | 0.253 |  |  |  |  |  |  |  |  |  | 
18 | NCI-H1563 |  |  |  |  |  | 1.38 | 0.759 | 0.627 | 0.485 | 0.61 |  |  |  |  |  | 0.556 | 0.539 | 0.53 | 0.435 | 0.407
19 | NCI-H1623 |  |  |  |  |  |  |  |  |  |  |  |  |  |  |  | 0.523 | 0.477 | 0.454 | 0.282 | 0.293
20 | NCI-H1648 |  |  |  |  |  |  |  |  |  |  | 0.256 | 0.231 | 0.371 | 0.259 | 0.302 |  |  |  |  | 
21 | NCI-H1703 | 1.49 | 0.942 | 1.02 | 0.898 | 0.748 | 0.416 | 0.205 | 0.218 | 0.189 | 0.164 |  |  |  |  |  |  |  |  |  | 
22 | NCI-H2342 |  |  |  |  |  |  |  |  |  |  | 0.53 | 0.575 | 0.591 | 0.635 | 0.449 | 0.773 | 0.757 | 0.682 | 0.723 | 0.464
23 | SW 900 |  |  |  |  |  |  |  |  |  |  |  | 0.439 | 0.388 | 0.231 | 0.231 | 0.148 | 0.183 | 0.154 | 0.152 | 0.178
